Calls of active or inactive are those of the source. The rule behind the calls is not given here.
How the values were obtained:
[1] = molecular target: Protein kinase C alpha type (Homo sapiens) (UniProt P17252); assay: Inhibition of PKCalpha (unknown origin) at 30 uM
Homo sapiens = species on record: Homo sapiens; assay: Inhibition of PKA (unknown origin) at 30 uM
[2] = molecular target: Mitogen-activated protein kinase 10 (Homo sapiens) (UniProt P53779); assay: Inhibition of JNK3 (unknown origin) at 30 uM
[3] = molecular target: Phosphatidylinositol 4,5-bisphosphate 3-kinase catalytic subunit gamma isoform (Homo sapiens) (UniProt P48736); assay: Inhibition of PI3Kgamma (unknown origin) at 30 uM
[4] = molecular target: Mitogen-activated protein kinase 1 (Homo sapiens) (UniProt P28482); assay: Inhibition of ERK2 (unknown origin) at 30 uM
[5] = molecular target: MAP kinase-activated protein kinase 3 (Homo sapiens) (UniProt Q16644); assay: Inhibition of MAPKAPK3 (unknown origin) at 30 uM
[6] = molecular target: MAP kinase-activated protein kinase 2 (Homo sapiens) (UniProt P49137); assay: Inhibition of MAPKAPK2 (unknown origin) at 30 uM
[7] = molecular target: Serine/threonine-protein kinase TBK1 (Homo sapiens) (UniProt Q9UHD2); assay: Inhibition of TBK1 (unknown origin) at 30 uM
[8] = molecular target: Interleukin-1 receptor-associated kinase 1 (Homo sapiens) (UniProt P51617); assay: Inhibition of IRAK1 (unknown origin) at 30 uM
Mus musculus [9] = assay: Antiinflammatory activity in po dosed mouse assessed as inhibition of LPS-induced IL-6 production administered 1 hr prior to LPS challenge measured after 1 hr; type: functional, organism-based
Mus musculus [10] = assay: Antiinflammatory activity in po dosed mouse assessed as inhibition of LPS-induced TNF-alpha production administered 1 hr prior to LPS challenge measured after 1 hr; type: functional, organism-based
[11] = Oral bioavailability in mouse at 4 mg/kg; type: ADME, organism-based; conditions: in vivo
[12] = Terminal half life in mouse at 4 mg/kg, po; type: ADME, organism-based; set-up: dose 4 mg/kg, route oral; conditions: in vivo, read-out: beta t1/2 (converted)
[13] = AUC (0 to 24 hrs) in mouse at 4 mg/kg, po; type: ADME, organism-based; set-up: time < 24 hr, dose 4 mg/kg, route oral; conditions: plasma
[14] = AUC (0 to 24 hrs) in mouse at 2 mg/kg, iv; type: ADME, organism-based; set-up: time < 24 hr, dose 2 mg/kg, route intravenous; conditions: plasma
PBMC [15] = assay: Antiinflammatory activity in human PBMC assessed as inhibition of LPS-induced IL-1beta release incubated for 15 mins prior to LPS-challenge measured after 24 hrs by HTRF assay; type: functional, cell-based
PBMC [16] = assay: Antiinflammatory activity in human PBMC assessed as inhibition of LPS-induced TNFalpha release incubated for 15 mins prior to LPS-challenge measured after 24 hrs by HTRF assay; type: functional, cell-based
Mus musculus [17] = assay: Antiinflammatory activity in mouse assessed as inhibition of LPS-induced TNF-alpha production at 30 mg/kg, po administered 1 hr prior to LPS challenge measured after 1 hr; type: functional
Mus musculus [18] = assay: Antiinflammatory activity in mouse assessed as inhibition of LPS-induced IL-6 production at 30 mg/kg, po administered 1 hr prior to LPS challenge measured after 1 hr; type: functional
Mus musculus [19] = assay: Antiinflammatory activity in mouse assessed as inhibition of LPS-induced TNF-alpha production at 100 mg/kg, po administered 1 hr prior to LPS challenge measured after 1 hr; type: functional, organism-based; set-up: dose 100 mg/kg

MAP kinase-activated protein kinase 2 (Homo sapiens), sequence (P49137 whole entry, looked up): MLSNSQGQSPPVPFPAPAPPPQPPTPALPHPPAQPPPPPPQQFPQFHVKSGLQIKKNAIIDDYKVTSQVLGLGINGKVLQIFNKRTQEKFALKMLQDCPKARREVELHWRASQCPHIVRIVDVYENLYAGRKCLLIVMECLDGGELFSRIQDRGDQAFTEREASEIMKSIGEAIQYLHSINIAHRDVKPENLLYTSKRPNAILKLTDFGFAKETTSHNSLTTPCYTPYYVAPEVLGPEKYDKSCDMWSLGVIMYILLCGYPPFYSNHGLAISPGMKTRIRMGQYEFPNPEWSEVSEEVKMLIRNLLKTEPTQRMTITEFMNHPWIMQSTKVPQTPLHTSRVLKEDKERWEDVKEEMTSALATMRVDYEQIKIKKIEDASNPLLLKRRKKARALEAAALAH
Phosphatidylinositol 4,5-bisphosphate 3-kinase catalytic subunit gamma isoform (Homo sapiens), sequence (P48736 whole entry, looked up, canonical isoform): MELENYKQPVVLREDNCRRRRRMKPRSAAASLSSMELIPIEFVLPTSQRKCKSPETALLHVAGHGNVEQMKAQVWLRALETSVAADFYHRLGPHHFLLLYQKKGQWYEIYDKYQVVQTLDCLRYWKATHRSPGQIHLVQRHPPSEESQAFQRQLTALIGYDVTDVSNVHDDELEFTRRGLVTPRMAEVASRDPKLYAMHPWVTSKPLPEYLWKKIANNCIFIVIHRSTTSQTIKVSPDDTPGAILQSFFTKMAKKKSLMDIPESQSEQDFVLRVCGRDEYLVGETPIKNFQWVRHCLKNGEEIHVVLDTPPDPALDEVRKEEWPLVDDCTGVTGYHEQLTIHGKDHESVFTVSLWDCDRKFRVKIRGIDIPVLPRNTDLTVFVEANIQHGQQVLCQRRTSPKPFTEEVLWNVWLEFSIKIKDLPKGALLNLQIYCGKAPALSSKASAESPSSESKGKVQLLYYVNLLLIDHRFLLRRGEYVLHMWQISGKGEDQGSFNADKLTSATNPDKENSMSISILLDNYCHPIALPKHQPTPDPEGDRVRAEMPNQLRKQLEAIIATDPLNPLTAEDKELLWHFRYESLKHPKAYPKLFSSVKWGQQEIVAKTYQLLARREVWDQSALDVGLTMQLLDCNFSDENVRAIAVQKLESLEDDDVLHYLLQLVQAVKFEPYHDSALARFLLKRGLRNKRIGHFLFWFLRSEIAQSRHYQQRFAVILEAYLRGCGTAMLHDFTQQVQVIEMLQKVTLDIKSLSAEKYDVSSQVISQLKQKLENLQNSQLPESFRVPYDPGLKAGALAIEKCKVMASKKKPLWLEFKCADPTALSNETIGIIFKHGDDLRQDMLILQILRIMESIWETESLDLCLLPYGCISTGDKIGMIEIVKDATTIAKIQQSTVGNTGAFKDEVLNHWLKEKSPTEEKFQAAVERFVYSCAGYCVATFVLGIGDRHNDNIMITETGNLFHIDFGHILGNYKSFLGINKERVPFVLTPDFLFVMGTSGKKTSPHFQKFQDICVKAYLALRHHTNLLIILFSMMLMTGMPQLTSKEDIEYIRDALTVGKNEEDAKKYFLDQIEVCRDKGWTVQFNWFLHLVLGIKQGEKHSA
Mitogen-activated protein kinase 10 (Homo sapiens), sequence (P53779 whole entry, canonical isoform): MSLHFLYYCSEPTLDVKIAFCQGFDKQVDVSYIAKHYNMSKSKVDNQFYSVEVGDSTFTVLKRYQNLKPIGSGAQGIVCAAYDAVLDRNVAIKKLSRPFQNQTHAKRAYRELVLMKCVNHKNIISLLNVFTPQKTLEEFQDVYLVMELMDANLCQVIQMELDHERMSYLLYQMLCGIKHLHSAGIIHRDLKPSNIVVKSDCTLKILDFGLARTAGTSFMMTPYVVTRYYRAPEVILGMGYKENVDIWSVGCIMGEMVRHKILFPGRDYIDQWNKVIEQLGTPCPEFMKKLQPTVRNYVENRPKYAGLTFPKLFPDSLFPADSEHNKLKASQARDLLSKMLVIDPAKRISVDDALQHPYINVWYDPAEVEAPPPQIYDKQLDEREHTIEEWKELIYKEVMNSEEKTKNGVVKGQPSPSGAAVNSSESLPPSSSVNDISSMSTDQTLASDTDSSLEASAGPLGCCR
Mitogen-activated protein kinase 1 (Homo sapiens), sequence (P28482 whole entry): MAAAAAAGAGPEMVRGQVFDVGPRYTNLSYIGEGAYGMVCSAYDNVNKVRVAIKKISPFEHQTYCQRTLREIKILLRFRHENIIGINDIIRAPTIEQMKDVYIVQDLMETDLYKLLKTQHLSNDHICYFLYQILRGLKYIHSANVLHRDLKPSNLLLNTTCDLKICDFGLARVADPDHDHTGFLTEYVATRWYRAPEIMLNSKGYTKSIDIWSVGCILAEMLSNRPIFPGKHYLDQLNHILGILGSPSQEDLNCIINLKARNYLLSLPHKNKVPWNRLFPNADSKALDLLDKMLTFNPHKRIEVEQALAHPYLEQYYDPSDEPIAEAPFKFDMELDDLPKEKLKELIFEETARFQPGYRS
Serine/threonine-protein kinase TBK1 (Homo sapiens), sequence (Q9UHD2 whole entry): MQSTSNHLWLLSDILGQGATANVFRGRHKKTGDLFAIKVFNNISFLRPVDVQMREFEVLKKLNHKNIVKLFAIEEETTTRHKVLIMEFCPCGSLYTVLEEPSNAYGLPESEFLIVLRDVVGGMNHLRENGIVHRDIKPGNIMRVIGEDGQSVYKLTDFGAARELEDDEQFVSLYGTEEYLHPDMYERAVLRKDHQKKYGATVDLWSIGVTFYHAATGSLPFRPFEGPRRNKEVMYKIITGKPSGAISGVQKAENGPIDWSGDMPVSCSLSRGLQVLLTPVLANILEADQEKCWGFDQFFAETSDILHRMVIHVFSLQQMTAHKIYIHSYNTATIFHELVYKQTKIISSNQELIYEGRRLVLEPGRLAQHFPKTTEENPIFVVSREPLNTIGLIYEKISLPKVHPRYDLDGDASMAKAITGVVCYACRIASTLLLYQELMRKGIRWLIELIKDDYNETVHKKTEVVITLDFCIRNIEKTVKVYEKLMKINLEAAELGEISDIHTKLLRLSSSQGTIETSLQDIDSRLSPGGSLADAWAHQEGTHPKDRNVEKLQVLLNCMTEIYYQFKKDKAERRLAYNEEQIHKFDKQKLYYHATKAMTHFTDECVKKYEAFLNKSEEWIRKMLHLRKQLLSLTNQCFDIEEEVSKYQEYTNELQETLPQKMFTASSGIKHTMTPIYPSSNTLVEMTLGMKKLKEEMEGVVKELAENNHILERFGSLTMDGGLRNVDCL
Interleukin-1 receptor-associated kinase 1 (Homo sapiens), sequence (P51617 whole entry, looked up): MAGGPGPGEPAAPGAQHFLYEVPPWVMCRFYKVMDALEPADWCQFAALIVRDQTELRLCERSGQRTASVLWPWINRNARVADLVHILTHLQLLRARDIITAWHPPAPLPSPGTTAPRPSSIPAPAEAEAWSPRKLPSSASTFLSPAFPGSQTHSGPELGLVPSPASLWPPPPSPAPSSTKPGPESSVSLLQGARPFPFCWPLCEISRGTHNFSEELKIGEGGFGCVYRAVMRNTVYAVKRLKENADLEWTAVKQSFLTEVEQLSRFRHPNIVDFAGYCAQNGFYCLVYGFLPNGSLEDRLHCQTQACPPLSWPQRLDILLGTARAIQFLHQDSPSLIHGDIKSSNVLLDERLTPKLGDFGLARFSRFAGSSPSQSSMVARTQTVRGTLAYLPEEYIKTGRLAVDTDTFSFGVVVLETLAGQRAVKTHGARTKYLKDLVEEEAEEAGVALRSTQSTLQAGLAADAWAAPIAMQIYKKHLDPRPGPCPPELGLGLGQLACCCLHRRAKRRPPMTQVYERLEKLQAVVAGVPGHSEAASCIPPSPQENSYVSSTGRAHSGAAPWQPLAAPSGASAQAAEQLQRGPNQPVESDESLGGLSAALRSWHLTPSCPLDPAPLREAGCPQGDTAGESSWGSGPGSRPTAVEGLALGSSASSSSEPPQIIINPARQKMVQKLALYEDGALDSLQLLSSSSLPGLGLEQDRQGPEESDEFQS
MAP kinase-activated protein kinase 3 (Homo sapiens), sequence (Q16644 whole entry, looked up): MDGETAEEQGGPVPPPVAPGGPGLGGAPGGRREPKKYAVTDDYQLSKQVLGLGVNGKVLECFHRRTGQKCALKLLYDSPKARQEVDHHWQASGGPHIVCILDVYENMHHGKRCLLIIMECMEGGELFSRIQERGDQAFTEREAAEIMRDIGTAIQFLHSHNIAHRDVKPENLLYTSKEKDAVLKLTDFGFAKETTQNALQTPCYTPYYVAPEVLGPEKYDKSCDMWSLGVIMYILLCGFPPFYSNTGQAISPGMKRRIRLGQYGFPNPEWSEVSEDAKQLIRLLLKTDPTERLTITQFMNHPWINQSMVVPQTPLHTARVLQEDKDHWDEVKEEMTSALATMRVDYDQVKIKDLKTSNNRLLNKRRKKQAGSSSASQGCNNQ

## O=C(Nc1ccc2c(c1)B(O)OC2)c1c(C(F)(F)F)ccc(Cl)c1F
[1]
  inhibition: 62%
Homo sapiens
  inhibition: inactive
[2]
  inhibition: inactive
[3]
  inhibition: inactive
[4]
  inhibition: inactive
[5]
  inhibition: inactive
[6]
  inhibition: inactive
[7]
  inhibition: inactive
[8]
  inhibition: inactive
Mus musculus [9]
  inhibition: Dose-dependent effect
Mus musculus [10]
  inhibition: Dose-dependent effect
[11]
  bioavailability: 71%
[12]
  half-life: 798 min
[13]
  AUC(0-t) at 24 h: 70100 ng·h/mL
[14]
  AUC(0-t) at 24 h: 43400 ng·h/mL
PBMC [15]
  IC50: 190 nM
PBMC [16]
  IC50: 500 nM
Mus musculus [17]
  inhibition in vivo at 30 mg/kg: 80%
Mus musculus [18]
  inhibition in vivo at 30 mg/kg: 95%
Mus musculus [19]
  inhibition: Active

Reference: ChEMBL document CHEMBL2440005, “Discovery and structure-activity relationships of 6-(benzoylamino)benzoxaboroles as orally active anti-inflammatory agents” (Bioorg Med Chem Lett, 2013)
